Patent US5300672A (priority 1992, dated 1994)
Like-named read-outs stand apart in the source and are kept apart here.

How the values were obtained:
Piricularia oryzae = assay: whole plant or invertebrate; type: in vivo; conditions: for pest or weed control at 100 ppm: read-out: % Control RB, application rate 100 ppm; for pest or weed control at 200 ppm: read-out: % Control RB, application rate 200 ppm
[1] = test system: Puccinia recondita (f. sp. tritici Races PKB and PLD); assay: whole plant or invertebrate; type: in vivo; conditions: for pest or weed control at 100 ppm / pest or weed control at 200 ppm: Puccinia recondita, 240 h, read-out: % Control WLR
[2] = test system: Erysiphe graminis (f. sp. tritici); assay: whole plant or invertebrate; type: in vivo
Pseudomonas fluorescens = assay: Alternate Minimum Inhibitory Concentrations Test (Table 4), Ps.fl; type: cell-based; conditions: Table 4 alternate test, 250 ppm to 0.8 ppm in TSB, 72 hours, 30° C.; for MIC: Pseudomonas fluorescens, read-out: MIC Ps.fl
Description: The compounds of Examples 1-8, 12-26, 28-33, 36-37, 39-42, 44-109, 111-114, and 116-120 were subjected also to the following alternate biocidal activity test procedures with the results as indicated in Table 4.
The MIC test measures the viability of Pseudomonas fluorescens inoculum in TSB when exposed for 72 hours to varying concentrations of test compound.
A 125 μl aliquot of 10,000 ppm test compound in acetone was added to 4.88 ml of TSB to provide a 250 ppm solution. From this solution, 100 μL was transferred to the first row of two microtiter plate columns. Both replicates and five additional compounds were all serially diluted 1:1 to a final concentration of 0.8 ppm in TSB.
Inoculation was accomplished by diluting a 24 hr Ps fl culture, four mls per 36 mls of phosphate buffer solution. A Dynatech autoinoculator was used to transfer 1.5 μl of this cell suspension to the microtiter plates. The plates were incubated at 30° C. for 3 days before the lowest concentration at which no growth occurs was recorded in the database.

[3] = test system: Pellicularia filamentosa (f. sp. sasiki); assay: whole plant or invertebrate; type: in vivo; conditions: for pest or weed control at 100 ppm / pest or weed control at 200 ppm: 120 h, read-out: % Control RSB
Phytophthora infestans = assay: whole plant or invertebrate; type: in vivo; conditions: for pest or weed control at 100 ppm / pest or weed control at 200 ppm / pest or weed control at 6 ppm: Phytophthora infestans, in Solanum lycopersicum, 96 h
[4] = Blumeria graminis, read-out: % Control WPM
[5] = read-out: % Control TLB, application rate 200 ppm
[6] = Pyricularia oryzae, read-out: % Control RB, application rate 25 ppm
[7] = read-out: % Control TLB, application rate 100 ppm

## CCCCCCCCNC(=O)/C=C\SC(=O)N1CCCC1 [Compound 32, N-octyl-cis-3-[(1-pyrrolidine)carbonylthio]acrylamide]
Piricularia oryzae; Pyricularia oryzae
  pest or weed control at 100 ppm: 0%
[1]
  pest or weed control at 100 ppm: 0%
[2]; [4]
  pest or weed control at 100 ppm: 0%
Pseudomonas fluorescens
  MIC: > 250 µg/mL
[3]
  pest or weed control at 100 ppm: 0%
Phytophthora infestans; read-out: % Control TLB
  pest or weed control at 100 ppm: 80%

## CCCCCCCCNC(=O)/C=C\SCC(=O)OCC [Compound 34, N-octyl-cis-3-(ethoxycarbonylmethanethio)acrylamide]
Piricularia oryzae; Pyricularia oryzae
  pest or weed control at 100 ppm: 0%
[1]
  pest or weed control at 100 ppm: 0%
[2]; [4]
  pest or weed control at 100 ppm: 0%
[3]
  pest or weed control at 100 ppm: 90%
Phytophthora infestans; read-out: % Control TLB
  pest or weed control at 100 ppm: 80%

## CCCCCCCCNC(=O)/C=C\SC(=O)c1ccsc1 [Compound 65, N-octyl-cis-3-[(3-thiophene)carbonylthio]acrylamide]
Piricularia oryzae; Pyricularia oryzae
  pest or weed control at 200 ppm: 0%
[1]
  pest or weed control at 200 ppm: 0%
[2]; [4]
  pest or weed control at 200 ppm: 0%
Pseudomonas fluorescens
  MIC: > 250 µg/mL
[3]
  pest or weed control at 200 ppm: 0%
Phytophthora infestans; [5]
  pest or weed control at 200 ppm: 95%

## CCCCCCCCNC(=O)/C=C\SC(=O)C(Cl)Cl [Compound 37, N-octyl-cis-3-(dichloroacetylthio)acrylamide]
Piricularia oryzae; [6]
  pest or weed control at 25 ppm: 80%
[1]
  pest or weed control at 100 ppm: 0%
[2]; [4]
  pest or weed control at 100 ppm: 0%
Pseudomonas fluorescens
  MIC: > 250 µg/mL
[3]
  pest or weed control at 100 ppm: 0%
Phytophthora infestans; read-out: % Control TLB
  pest or weed control at 6 ppm: 90%

## CCCCCCCCNC(=O)/C=C\SC(=O)c1ccoc1 [Compound 62, N-octyl-cis-3-(3-furoylthio)acrylamide]
Piricularia oryzae; Pyricularia oryzae
  pest or weed control at 200 ppm: 0%
[1]
  pest or weed control at 100 ppm: 0%
[2]; [4]
  pest or weed control at 12 ppm: 50%
Pseudomonas fluorescens
  MIC: > 250 µg/mL
[3]
  pest or weed control at 200 ppm: 0%
Phytophthora infestans; read-out: % Control TLB
  pest or weed control at 200 ppm: 90%

## CCCCCCCCNC(=O)/C=C\SC(=O)c1c(F)cc(F)cc1F [Compound 28, N-octyl-cis-3-[(2,4,6-trifluorobenzoyl)thio]acrylamide]
Piricularia oryzae; Pyricularia oryzae
  pest or weed control at 100 ppm: 90%
[1]
  pest or weed control at 100 ppm: 0%
[2]; [4]
  pest or weed control at 100 ppm: 0%
Pseudomonas fluorescens
  MIC: > 250 µg/mL
[3]
  pest or weed control at 100 ppm: 0%
Phytophthora infestans; [7]
  pest or weed control at 100 ppm: 0%

## CCCCCCCCNC(=O)/C=C\SC(=O)CCCCCCC [Compound 23, N-octyl-cis-3-(octanoylthio)acrylamide]
Piricularia oryzae; Pyricularia oryzae
  pest or weed control at 100 ppm: 0%
[1]
  pest or weed control at 100 ppm: 0%
[2]; [4]
  pest or weed control at 100 ppm: 0%
Pseudomonas fluorescens
  MIC: > 250 µg/mL
[3]
  pest or weed control at 100 ppm: 80%
Phytophthora infestans; [7]
  pest or weed control at 100 ppm: 0%

## CCCCCCCCNC(=O)/C=C\SC(C)C(=O)OC (stereo not drawn) [Compound 38]
Piricularia oryzae; [6]
  pest or weed control at 25 ppm: 80%
[1]
  pest or weed control at 100 ppm: 0%
[2]; [4]
  pest or weed control at 100 ppm: 0%
[3]
  pest or weed control at 100 ppm: 0%
Phytophthora infestans; read-out: % Control TLB
  pest or weed control at 6 ppm: 80%

## CCCCCCCCNC(=O)/C=C\SC(=O)c1cccc(Br)c1 [Compound 36, N-octyl-cis-3-[(3-bromobenzoyl)thio]acrylamide]
Piricularia oryzae; Pyricularia oryzae, read-out: % Control RB
  pest or weed control at 25 ppm: 90%
[1]
  pest or weed control at 100 ppm: 0%
[2]; [4]
  pest or weed control at 100 ppm: 0%
Pseudomonas fluorescens
  MIC: > 250 µg/mL
[3]
  pest or weed control at 100 ppm: 0%
Phytophthora infestans; [7]
  pest or weed control at 100 ppm: 0%

## CCCCCCCCNC(=O)/C=C\SC(=O)CCCCCCCCCCC#N [Compound 58, N-octyl-cis-3-[(11-cyanoundecanoyl)thio]acrylamide]
[1]
  pest or weed control at 200 ppm: 0%
[2]; [4]
  pest or weed control at 200 ppm: 0%
Pseudomonas fluorescens
  MIC: > 250 µg/mL
[3]
  pest or weed control at 200 ppm: 50%
Phytophthora infestans; [5]
  pest or weed control at 200 ppm: 0%

## CCCCCCCCNC(=O)/C=C\SC(=O)c1c(Cl)cccc1Cl [Compound 21, N-octyl-cis-3-[(2,6-dichlorobenzoyl)thio]acrylamide]
Piricularia oryzae; Pyricularia oryzae
  pest or weed control at 100 ppm: 0%
[1]
  pest or weed control at 100 ppm: 0%
[2]; [4]
  pest or weed control at 100 ppm: 0%
Pseudomonas fluorescens
  MIC: > 250 µg/mL
[3]
  pest or weed control at 100 ppm: 0%
Phytophthora infestans; read-out: % Control TLB
  pest or weed control at 100 ppm: 80%

## CCCCCCCCNC(=O)/C=C\SC(=O)C(CC)CCCC (stereo not drawn) [Compound 27, N-octyl-cis-3-[(2-ethylhexanoyl)thio]acrylamide]
Piricularia oryzae; Pyricularia oryzae
  pest or weed control at 100 ppm: 0%
[1]
  pest or weed control at 100 ppm: 0%
[2]; [4]
  pest or weed control at 100 ppm: 0%
[3]
  pest or weed control at 100 ppm: 0%
Phytophthora infestans; read-out: % Control TLB
  pest or weed control at 100 ppm: 90%

## CCCCCCCCNC(=O)/C=C\SC/C=C/c1ccccc1 [Compound 13, N-octyl-cis-3-[(trans-3-phenylprop-2-ene)thio]acrylamide]
Piricularia oryzae; Pyricularia oryzae
  pest or weed control at 100 ppm: 0%
[1]
  pest or weed control at 100 ppm: 0%
[2]; [4]
  pest or weed control at 100 ppm: 0%
Pseudomonas fluorescens
  MIC: > 250 µg/mL
[3]
  pest or weed control at 100 ppm: 0%
Phytophthora infestans; read-out: % Control TLB
  pest or weed control at 100 ppm: 80%

## CCCCCCCCNC(=O)/C=C\SC(=O)c1cccc(OC)c1 [Compound 8, N-octyl-cis-3-[(3-methoxybenzoyl)thio]acrylamide]
Piricularia oryzae; Pyricularia oryzae
  pest or weed control at 100 ppm: 80%
[1]
  pest or weed control at 100 ppm: 0%
[2]; [4]
  pest or weed control at 100 ppm: 0%
Pseudomonas fluorescens
  MIC: > 250 µg/mL
[3]
  pest or weed control at 100 ppm: 0%
Phytophthora infestans; read-out: % Control TLB
  pest or weed control at 100 ppm: 80%

## CCCCCCCCNC(=O)/C=C\SC(=O)CC(=O)OCC [Compound 2, N-octyl-cis-3-(ethylmalonylthio)acrylamide]
Piricularia oryzae; Pyricularia oryzae, read-out: % Control RB, application rate 6 ppm
  pest or weed control at 6 ppm: 50%
[1]
  pest or weed control at 100 ppm: 0%
[2]; [4]
  pest or weed control at 100 ppm: 0%
Pseudomonas fluorescens
  MIC: > 250 µg/mL
[3]
  pest or weed control at 100 ppm: 0%
Phytophthora infestans; read-out: % Control TLB
  pest or weed control at 100 ppm: 90%

## CCCCCCCCNC(=O)/C=C\SC(=O)CCOc1ccccc1 [Compound 79, N-octyl-cis-3-[(3-phenoxypropanoyl)thio]acrylamide]
Piricularia oryzae; Pyricularia oryzae
  pest or weed control at 200 ppm: 0%
[1]
  pest or weed control at 200 ppm: 0%
[2]; [4]
  pest or weed control at 200 ppm: 0%
Pseudomonas fluorescens
  MIC: > 250 µg/mL
[3]
  pest or weed control at 200 ppm: 0%
Phytophthora infestans; [5]
  pest or weed control at 200 ppm: 100%

## N-octyl-cis-3-[(3-cyanobenzoyl)thio]acrylamide [Compound 67]
Piricularia oryzae; in vivo
  % Control RB: 0 % Control
[1]; in vivo
  % Control WLR: 0 % Control
[2]; in vivo
  % Control WPM: 0 % Control
Pseudomonas fluorescens
  MIC Ps.fl: > 250 Ppm
[3]; in vivo
  % Control RSB: 0 % Control
Phytophthora infestans; application rate 200 ppm
  % Control TLB: 95 % Control

## C=CCC(=O)S/C=C\C(=O)NCCCCCCCC [Compound 63, N-octyl-cis-3-[(3-butenoyl)thio]acrylamide]
Piricularia oryzae; Pyricularia oryzae
  pest or weed control at 200 ppm: 0%
[1]
  pest or weed control at 200 ppm: 0%
[2]; [4]
  pest or weed control at 200 ppm: 0%
Pseudomonas fluorescens
  MIC: > 250 µg/mL
[3]
  pest or weed control at 200 ppm: 0%
Phytophthora infestans; [5]
  pest or weed control at 200 ppm: 100%

## CCCCCCCCNC(=O)/C=C\SC(=O)c1cc2ccccc2s1 [Compound 19, N-octyl-cis-3-[(2-benzo(6)thiophene)carbonylthio]acrylamide]
Piricularia oryzae; Pyricularia oryzae
  pest or weed control at 100 ppm: 0%
[1]
  pest or weed control at 100 ppm: 0%
[2]; [4]
  pest or weed control at 100 ppm: 0%
Pseudomonas fluorescens
  MIC: > 250 µg/mL
[3]
  pest or weed control at 100 ppm: 0%
Phytophthora infestans; read-out: % Control TLB
  pest or weed control at 100 ppm: 90%

## CCCCCCCCNC(=O)/C=C\SC(=O)c1cc(Cl)cc(Cl)c1 [Compound 54, N-octyl-cis-3-[(3,5-dichlorobenzoyl)thio]acrylamide]
[1]
  pest or weed control at 100 ppm: 0%
[2]; [4]
  pest or weed control at 100 ppm: 0%
Pseudomonas fluorescens
  MIC: > 250 µg/mL
[3]
  pest or weed control at 100 ppm: 0%
Phytophthora infestans; read-out: % Control TLB
  pest or weed control at 100 ppm: 85%

## CCCCCCCCNC(=O)/C=C\SC(=O)c1ccccc1CCl [Compound 35, N-octyl-cis-3-[(2-(chloromethyl)benzoyl)thio]acrylamide]
Piricularia oryzae; Pyricularia oryzae
  pest or weed control at 100 ppm: 80%
[1]
  pest or weed control at 100 ppm: 0%
[2]; [4]
  pest or weed control at 100 ppm: 85%
[3]
  pest or weed control at 100 ppm: 0%
Phytophthora infestans; [7]
  pest or weed control at 100 ppm: 0%
